Laboratory results taken from article PMC3961306, “Comparison of the Cancer Gene Targeting and Biochemical Selectivities of All Targeted Kinase Inhibitors Approved for Clinical Use” (PLoS ONE, 2014).

Key:
Assay in all cases: Kinase profiling in a biochemical assay panel (mobility shift assays and ELISA), %-inhibition at 1 μM; selectivity entropy
[1] = target: panel of more than 300 wild-type and mutant kinases (313 kinase panel) (Homo sapiens, UniProt P22455); conditions: kinase FGFR4; compound at 1 μM
[2] = target: panel of more than 300 wild-type and mutant kinases (313 kinase panel) (Homo sapiens, UniProt Q8IY84); conditions: kinase MGC42105; 1 μM
[3] = target: panel of more than 300 wild-type and mutant kinases (313 kinase panel) (Homo sapiens, UniProt Q9UKE5); conditions: kinase TNIK; 1 μM
Chain of panel of more than 300 wild-type and mutant kinases (313 kinase panel) (Homo sapiens, UniProt Q9UKE5) (Q9UKE5 whole entry, change not shown): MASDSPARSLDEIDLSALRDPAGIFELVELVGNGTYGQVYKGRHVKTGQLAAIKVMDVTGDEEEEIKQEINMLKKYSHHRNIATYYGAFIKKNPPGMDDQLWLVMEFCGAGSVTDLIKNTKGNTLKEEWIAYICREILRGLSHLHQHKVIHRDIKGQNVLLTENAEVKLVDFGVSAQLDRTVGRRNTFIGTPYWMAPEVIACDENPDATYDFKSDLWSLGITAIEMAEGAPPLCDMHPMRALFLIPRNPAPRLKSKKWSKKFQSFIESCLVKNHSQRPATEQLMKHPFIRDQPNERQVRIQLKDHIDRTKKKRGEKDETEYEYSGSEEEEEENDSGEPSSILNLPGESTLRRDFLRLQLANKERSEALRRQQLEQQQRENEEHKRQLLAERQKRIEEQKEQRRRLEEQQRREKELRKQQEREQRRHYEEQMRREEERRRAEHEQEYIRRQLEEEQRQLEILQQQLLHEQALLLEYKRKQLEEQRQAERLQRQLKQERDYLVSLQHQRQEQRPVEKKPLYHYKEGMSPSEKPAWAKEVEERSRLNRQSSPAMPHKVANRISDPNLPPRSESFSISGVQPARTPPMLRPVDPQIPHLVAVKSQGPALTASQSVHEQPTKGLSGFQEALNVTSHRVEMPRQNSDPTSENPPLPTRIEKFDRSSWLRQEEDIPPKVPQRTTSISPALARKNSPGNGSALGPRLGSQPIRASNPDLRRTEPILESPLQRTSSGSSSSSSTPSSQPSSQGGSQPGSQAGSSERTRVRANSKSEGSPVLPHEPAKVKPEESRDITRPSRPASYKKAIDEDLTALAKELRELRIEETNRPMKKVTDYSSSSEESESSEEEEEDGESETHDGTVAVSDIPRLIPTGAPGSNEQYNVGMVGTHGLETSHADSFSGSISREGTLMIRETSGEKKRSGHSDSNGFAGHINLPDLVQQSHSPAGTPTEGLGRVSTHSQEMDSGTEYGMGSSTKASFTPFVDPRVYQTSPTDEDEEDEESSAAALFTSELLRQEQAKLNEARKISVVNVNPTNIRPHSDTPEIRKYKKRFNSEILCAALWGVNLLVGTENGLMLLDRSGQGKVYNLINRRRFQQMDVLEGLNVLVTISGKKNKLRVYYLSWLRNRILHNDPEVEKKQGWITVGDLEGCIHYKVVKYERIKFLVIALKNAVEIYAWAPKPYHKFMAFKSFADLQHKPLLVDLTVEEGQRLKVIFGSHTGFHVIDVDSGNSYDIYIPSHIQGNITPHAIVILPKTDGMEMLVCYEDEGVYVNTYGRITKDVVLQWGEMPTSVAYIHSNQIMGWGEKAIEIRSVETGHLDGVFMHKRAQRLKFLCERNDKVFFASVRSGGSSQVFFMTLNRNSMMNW

[4] = target: panel of more than 300 wild-type and mutant kinases (313 kinase panel) (Homo sapiens, UniProt P43405)
[5] = target: T1, panel of more than 300 wild-type and mutant kinases (313 kinase panel) (Homo sapiens, UniProt O43781); conditions: kinase DYRK3; compound at 1 μM
T1 sequence (O43781 1-588): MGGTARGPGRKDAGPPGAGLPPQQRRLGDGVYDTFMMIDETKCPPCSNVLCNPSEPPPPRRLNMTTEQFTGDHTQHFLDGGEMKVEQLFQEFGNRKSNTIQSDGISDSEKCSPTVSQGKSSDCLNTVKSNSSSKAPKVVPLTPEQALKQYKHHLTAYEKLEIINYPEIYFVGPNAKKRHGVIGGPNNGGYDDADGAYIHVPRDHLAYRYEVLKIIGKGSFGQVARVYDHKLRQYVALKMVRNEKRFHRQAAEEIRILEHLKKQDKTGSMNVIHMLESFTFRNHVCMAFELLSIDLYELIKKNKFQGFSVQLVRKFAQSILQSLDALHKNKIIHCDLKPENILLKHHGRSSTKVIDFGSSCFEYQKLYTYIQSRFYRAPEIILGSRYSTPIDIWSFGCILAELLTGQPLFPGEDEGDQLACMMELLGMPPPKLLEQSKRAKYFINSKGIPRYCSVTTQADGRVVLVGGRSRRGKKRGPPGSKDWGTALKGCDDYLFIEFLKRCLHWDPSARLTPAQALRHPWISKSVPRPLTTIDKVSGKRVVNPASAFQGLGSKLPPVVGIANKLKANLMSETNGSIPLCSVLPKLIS

[6] = target: panel of more than 300 wild-type and mutant kinases (313 kinase panel) (Homo sapiens, UniProt P06493); conditions: kinase CDC2/CycB1; 1 μM compound
[7] = target: panel of more than 300 wild-type and mutant kinases (313 kinase panel) (Homo sapiens, UniProt P22455, V550E); conditions: kinase FGFR4(V550E); compound at 1 μM
[8] = target: panel of more than 300 wild-type and mutant kinases (313 kinase panel) (Homo sapiens, UniProt P08631); conditions: kinase HCK; compound at 1 μM
Chain of panel of more than 300 wild-type and mutant kinases (313 kinase panel) (Homo sapiens, UniProt P08631) (P08631 whole entry, change not shown): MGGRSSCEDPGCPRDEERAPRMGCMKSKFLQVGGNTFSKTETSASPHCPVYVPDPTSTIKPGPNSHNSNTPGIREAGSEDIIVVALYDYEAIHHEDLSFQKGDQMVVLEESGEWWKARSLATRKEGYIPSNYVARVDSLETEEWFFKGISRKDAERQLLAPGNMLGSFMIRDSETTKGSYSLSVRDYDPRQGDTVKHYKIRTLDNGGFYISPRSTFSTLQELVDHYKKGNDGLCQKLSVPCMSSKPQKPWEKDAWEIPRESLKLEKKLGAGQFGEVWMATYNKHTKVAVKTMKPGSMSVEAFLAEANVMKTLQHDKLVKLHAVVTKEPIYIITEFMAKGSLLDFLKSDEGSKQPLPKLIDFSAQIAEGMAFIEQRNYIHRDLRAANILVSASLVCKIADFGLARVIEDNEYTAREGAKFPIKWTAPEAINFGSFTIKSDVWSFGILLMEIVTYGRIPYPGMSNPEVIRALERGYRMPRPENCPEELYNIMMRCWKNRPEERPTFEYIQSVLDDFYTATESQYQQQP

[9] = target: panel of more than 300 wild-type and mutant kinases (313 kinase panel) (Homo sapiens, UniProt P49137); conditions: kinase MAPKAPK2; compound at 1 μM
Chain of panel of more than 300 wild-type and mutant kinases (313 kinase panel) (Homo sapiens, UniProt P49137) (P49137 whole entry, change not shown): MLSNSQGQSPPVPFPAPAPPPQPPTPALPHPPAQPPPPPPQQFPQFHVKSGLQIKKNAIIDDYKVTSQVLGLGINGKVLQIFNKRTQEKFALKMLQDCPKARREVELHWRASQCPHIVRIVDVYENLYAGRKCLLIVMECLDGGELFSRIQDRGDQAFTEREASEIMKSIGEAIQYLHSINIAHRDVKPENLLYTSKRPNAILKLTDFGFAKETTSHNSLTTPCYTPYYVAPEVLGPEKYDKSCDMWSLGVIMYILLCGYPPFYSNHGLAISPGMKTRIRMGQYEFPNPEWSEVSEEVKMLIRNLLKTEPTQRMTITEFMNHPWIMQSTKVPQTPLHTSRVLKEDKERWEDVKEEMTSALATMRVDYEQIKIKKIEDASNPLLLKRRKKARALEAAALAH

[10] = target: panel of more than 300 wild-type and mutant kinases (313 kinase panel) (Homo sapiens, UniProt Q9BUB5); conditions: kinase MNK1; 1 μM
Chain of panel of more than 300 wild-type and mutant kinases (313 kinase panel) (Homo sapiens, UniProt Q9BUB5) (Q9BUB5 whole entry, change not shown): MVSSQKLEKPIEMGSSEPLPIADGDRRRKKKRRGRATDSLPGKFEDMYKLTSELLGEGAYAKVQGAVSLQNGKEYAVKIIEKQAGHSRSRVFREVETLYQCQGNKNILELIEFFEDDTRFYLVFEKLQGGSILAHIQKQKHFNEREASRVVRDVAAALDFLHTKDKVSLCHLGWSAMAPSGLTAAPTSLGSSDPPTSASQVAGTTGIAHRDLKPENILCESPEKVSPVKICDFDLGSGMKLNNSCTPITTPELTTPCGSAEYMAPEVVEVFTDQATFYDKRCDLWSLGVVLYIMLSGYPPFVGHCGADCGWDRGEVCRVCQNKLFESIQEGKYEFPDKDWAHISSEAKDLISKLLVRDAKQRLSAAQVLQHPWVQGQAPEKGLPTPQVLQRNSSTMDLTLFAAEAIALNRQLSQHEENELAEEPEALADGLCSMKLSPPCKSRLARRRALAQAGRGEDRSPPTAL

[11] = target: panel of more than 300 wild-type and mutant kinases (313 kinase panel) (Homo sapiens, UniProt Q16539); conditions: kinase p38α; 1 μM
Chain of panel of more than 300 wild-type and mutant kinases (313 kinase panel) (Homo sapiens, UniProt Q16539) (Q16539 whole entry, change not shown): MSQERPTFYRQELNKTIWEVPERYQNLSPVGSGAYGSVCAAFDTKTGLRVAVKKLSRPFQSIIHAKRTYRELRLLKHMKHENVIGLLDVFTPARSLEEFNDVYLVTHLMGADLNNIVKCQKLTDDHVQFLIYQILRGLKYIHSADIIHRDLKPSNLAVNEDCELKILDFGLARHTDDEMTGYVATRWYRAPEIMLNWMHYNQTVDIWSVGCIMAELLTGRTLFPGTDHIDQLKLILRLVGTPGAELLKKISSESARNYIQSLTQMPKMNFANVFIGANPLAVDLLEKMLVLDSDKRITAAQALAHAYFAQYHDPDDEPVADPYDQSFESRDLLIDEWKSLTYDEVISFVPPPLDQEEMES

[12] = target: panel of more than 300 wild-type and mutant kinases (313 kinase panel) (Homo sapiens, UniProt Q9BYP7); conditions: kinase WNK3; compound at 1 μM
Chain of panel of more than 300 wild-type and mutant kinases (313 kinase panel) (Homo sapiens, UniProt Q9BYP7) (Q9BYP7 whole entry, change not shown): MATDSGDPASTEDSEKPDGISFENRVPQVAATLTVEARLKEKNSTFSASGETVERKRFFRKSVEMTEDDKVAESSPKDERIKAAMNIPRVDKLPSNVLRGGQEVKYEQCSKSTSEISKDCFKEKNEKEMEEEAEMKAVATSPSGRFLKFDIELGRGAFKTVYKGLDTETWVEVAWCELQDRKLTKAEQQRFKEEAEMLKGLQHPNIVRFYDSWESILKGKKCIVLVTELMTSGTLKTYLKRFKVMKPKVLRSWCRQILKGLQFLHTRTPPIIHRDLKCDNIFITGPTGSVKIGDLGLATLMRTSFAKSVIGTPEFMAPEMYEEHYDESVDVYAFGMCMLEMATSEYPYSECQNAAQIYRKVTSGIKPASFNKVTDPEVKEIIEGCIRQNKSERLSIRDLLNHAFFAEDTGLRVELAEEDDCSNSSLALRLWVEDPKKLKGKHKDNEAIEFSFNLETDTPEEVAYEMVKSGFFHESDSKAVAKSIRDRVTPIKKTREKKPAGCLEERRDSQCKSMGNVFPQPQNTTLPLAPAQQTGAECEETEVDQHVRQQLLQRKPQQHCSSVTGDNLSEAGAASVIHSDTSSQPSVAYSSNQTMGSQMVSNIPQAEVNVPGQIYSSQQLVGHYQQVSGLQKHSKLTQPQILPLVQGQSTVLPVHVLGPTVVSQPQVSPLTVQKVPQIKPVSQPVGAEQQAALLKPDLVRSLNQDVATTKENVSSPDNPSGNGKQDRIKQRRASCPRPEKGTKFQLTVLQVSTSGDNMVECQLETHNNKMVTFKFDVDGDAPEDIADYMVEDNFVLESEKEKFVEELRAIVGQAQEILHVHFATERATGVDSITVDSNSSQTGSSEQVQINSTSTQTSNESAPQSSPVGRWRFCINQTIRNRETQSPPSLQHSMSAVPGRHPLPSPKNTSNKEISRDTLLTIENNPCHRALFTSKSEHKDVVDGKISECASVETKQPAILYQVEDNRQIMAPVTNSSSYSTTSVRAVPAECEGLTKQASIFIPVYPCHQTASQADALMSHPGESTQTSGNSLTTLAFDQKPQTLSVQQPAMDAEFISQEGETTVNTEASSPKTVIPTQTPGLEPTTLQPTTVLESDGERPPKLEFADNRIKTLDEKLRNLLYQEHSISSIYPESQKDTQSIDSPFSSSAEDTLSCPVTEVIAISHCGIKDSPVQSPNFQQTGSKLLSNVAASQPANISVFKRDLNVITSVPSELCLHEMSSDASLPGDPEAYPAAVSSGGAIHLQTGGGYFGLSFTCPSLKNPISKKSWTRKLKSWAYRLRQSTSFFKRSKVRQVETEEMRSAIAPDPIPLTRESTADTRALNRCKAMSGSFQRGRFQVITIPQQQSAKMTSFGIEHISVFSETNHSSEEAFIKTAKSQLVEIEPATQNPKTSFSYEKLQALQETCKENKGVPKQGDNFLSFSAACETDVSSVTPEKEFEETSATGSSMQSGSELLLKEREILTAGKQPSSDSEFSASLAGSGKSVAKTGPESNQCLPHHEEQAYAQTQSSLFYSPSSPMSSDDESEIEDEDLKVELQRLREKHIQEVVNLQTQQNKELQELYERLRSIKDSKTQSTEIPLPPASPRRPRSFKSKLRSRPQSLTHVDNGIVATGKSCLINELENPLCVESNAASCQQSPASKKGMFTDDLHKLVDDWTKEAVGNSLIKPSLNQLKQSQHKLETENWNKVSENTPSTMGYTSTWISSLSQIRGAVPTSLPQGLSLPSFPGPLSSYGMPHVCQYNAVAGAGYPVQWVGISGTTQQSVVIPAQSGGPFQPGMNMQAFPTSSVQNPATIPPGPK

[13] = target: panel of more than 300 wild-type and mutant kinases (313 kinase panel) (Homo sapiens, UniProt Q15349); conditions: kinase RSK3; 1 μM
[14] = target: panel of more than 300 wild-type and mutant kinases (313 kinase panel) (Homo sapiens, UniProt P07332); conditions: kinase FES; compound at 1 μM
[15] = target: T2, panel of more than 300 wild-type and mutant kinases (313 kinase panel) (Homo sapiens, UniProt Q13043); conditions: kinase MST1; 1 μM
T2 sequence (Q13043 1-487): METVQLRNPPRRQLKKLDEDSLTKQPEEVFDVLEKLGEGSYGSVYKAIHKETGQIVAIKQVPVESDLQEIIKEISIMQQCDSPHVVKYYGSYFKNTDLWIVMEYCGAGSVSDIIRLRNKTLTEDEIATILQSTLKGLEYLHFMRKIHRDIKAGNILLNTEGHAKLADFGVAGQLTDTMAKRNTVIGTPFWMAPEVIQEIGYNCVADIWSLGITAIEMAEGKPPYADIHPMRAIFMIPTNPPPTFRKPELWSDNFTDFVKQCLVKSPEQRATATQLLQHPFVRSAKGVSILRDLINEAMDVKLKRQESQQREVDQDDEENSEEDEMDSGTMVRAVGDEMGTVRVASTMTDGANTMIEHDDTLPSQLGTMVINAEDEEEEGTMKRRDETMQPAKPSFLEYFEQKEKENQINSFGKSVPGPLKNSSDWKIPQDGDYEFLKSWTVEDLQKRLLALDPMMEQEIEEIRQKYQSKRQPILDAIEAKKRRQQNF

Row | Structure (SMILES) | %-inhibition of FGFR4 [1] [%] | %-inhibition of MGC42105 [2] [%] | %-inhibition of TNIK [3] [%] | %-inhibition of SYK ([4]; kinase SYK, 1 μM) [%] | %-inhibition of DYRK3 [5] [%] | %-inhibition, CDC2/CycB1 [6] [%] | %-inhibition of FGFR4(V550E) [7] [%] | %-inhibition of HCK [8] [%] | %-inhibition of MAPKAPK2 [9] [%] | %-inhibition of MNK1 [10] [%] | %-inhibition of p38α [11] [%] | %-inhibition of WNK3 [12] [%] | %-inhibition of RSK3 [13] [%] | %-inhibition of FES [14] [%] | %-inhibition of MST1 [15] [%] | %-inhibition of SYK ([4]; 1 µM) [%]
1 | COc1cc2nccc(Oc3ccc(NC(=O)C4(C(=O)Nc5ccc(F)cc5)CC4)cc3)c2cc1OC [cabozantinib] | 8 | -8 | 16 | -3 | 4 | -17 | -4 | 95 | -17 | 11 | 37 | 20 | 0.355 | 39 | 6 | –
2 | CO[C@H]1C[C@@H]2CC[C@@H](C)[C@@](O)(O2)C(=O)C(=O)N2CCCC[C@H]2C(=O)O[C@H]([C@H](C)C[C@@H]2CC[C@@H](OCCO)[C@H](OC)C2)CC(=O)[C@H](C)/C=C(\C)[C@@H](O)[C@@H](OC)C(=O)[C@H](C)C[C@H](C)/C=C/C=C/C=C/1C [everolimus] | -7.59 | -4 | -3 | -2.55 | -11 | -19 | -4.41 | -2.7 | -18 | -0.485 | -4.27 | -12 | -9 | -2.38 | -1.86 | –
3 | CNC(=O)c1cc(Oc2ccc(NC(=O)Nc3ccc(Cl)c(C(F)(F)F)c3)c(F)c2)ccn1 [regorafenib] | 33 | -22 | 42 | 3.55 | 15 | 0.529 | -0.119 | 59 | -21 | 7 | 94 | -10 | 45 | -0.247 | -5.39 | –
4 | N#CC[C@H](C1CCCC1)n1cc(-c2ncnc3[nH]ccc23)cn1 [ruxolitinib] | 6 | -13 | 0.811 | – | -9 | 0.106 | 5 | 9 | -18 | 8.57 | -2.16 | -8 | 9 | 3 | 12 | 20
5 | CO[C@H]1C[C@@H]2CC[C@@H](C)[C@@](O)(O2)C(=O)C(=O)N2CCCC[C@H]2C(=O)O[C@H]([C@H](C)C[C@@H]2CC[C@@H](OC(=O)C(C)(CO)CO)[C@H](OC)C2)CC(=O)[C@H](C)/C=C(\C)[C@@H](O)[C@@H](OC)C(=O)[C@H](C)C[C@H](C)/C=C/C=C/C=C/1C [temsirolimus] | -4.51 | -11 | -2.54 | -13 | -0.454 | -23 | -0.119 | 3.49 | -17 | -19 | -5 | -13 | -3 | -4.68 | -2.42 | –
6 | CC(=O)Nc1cccc(-n2c(=O)n(C3CC3)c(=O)c3c(Nc4ccc(I)cc4F)n(C)c(=O)c(C)c32)c1 [trametinib] | -3 | 1.39 | 3 | -5 | -10 | 8 | -3.28 | -2.84 | -0.335 | -3 | -4 | 1 | -5 | -1.55 | -3.74 | –
7 | COc1cc2c(Nc3ccc(Br)cc3F)ncnc2cc1OCC1CCN(C)CC1 [vandetanib] | 31 | -17 | 66 | 27 | -5 | -0.952 | -0.358 | – | -20 | 91 | 18 | -7 | 9 | -3.7 | 3.16 | –
8 | CCCS(=O)(=O)Nc1ccc(F)c(C(=O)c2c[nH]c3ncc(-c4ccc(Cl)cc4)cc23)c1F [vemurafenib] | 5 | -8 | 33 | -3.77 | 5 | 10 | 1.79 | 30 | -16 | 23 | 10 | 53 | -0.497 | 18 | 51 | –
